# Assays:
# [1] = test system: MDA-MB-436; assay: cell count proliferation assay; type: cell-based; parameters: key: +: A positive scoring in these Tables represent cells in which a 2-5 and a 10-40 fold reduction in the total number of cells relative to the control untreated cells was observed after 3 and 7 days of culture with F16, respectively; conditions: MDA-MB-436, human breast; F16 3 μM, cells counted after 3 and 7 days
# Source text: (§1) The following panel of mouse tumor cell lines derived from Neu, Ras and Myc transgenic mice and panel of human cancer cell lines were used: a) Neu-initiated mouse tumor cell lines NF980, NF324-2A, NF324-1B, SMF, NAF, Neu4145, n-Neu, Ras-initiated mouse tumor cell lines SH1,1, AC236, AC711, AC816, ACp53^−#1, ACp53^−4782, AC222, AC99, AC260, ACp53^−#19, ACp53^−#16, AC/Balb6.6, AC/Balb14, AC/Balb12 and Myc-initiated mouse tumor cell lines 16MB9a, 13MA1a; and b) human breast tumor cell lines MDA-MB231, MDA-MB435, MDA-MB436, MDA-MB453, MDA-MB-468, SKBR-3, MCF-7, T47D, ZR75; human prostate cancer cell lines LNCaP, PC-3, DU145 and the human ovarian cancer cell line SKOV-3.
# (§2) For each cell line, 10^5 cells were seeded in 4×6 well plates. Next day, F16 was added at 3 μM to the medium of 2 of the plates, while the other two were left untreated (control). Cells were counted 3 days and 7 days after initiation of treatment.
# (§3) A positive scoring in these Tables represent cells in which a 2-5 and a 10-40 fold reduction in the total number of cells relative to the control untreated cells was observed after 3 and 7 days of culture with F16, respectively.
# [2] = test system: SKBR-3; assay: cell count proliferation assay; type: cell-based; parameters: key: +: A positive scoring in these Tables represent cells in which a 2-5 and a 10-40 fold reduction in the total number of cells relative to the control untreated cells was observed after 3 and 7 days of culture with F16, respectively; conditions: SKBR-3, human breast; F16 3 μM, cells counted after 3 and 7 days
# Source text: as §1, §2, §3
# [3] = test system: ZR75; assay: cell count proliferation assay; type: cell-based; parameters: key: +: A positive scoring in these Tables represent cells in which a 2-5 and a 10-40 fold reduction in the total number of cells relative to the control untreated cells was observed after 3 and 7 days of culture with F16, respectively; conditions: ZR75, human breast; F16 3 μM, cells counted after 3 and 7 days
# Source text: as §1, §2, §3
# [4] = test system: T47D; assay: cell count proliferation assay; type: cell-based; parameters: key: +: A positive scoring in these Tables represent cells in which a 2-5 and a 10-40 fold reduction in the total number of cells relative to the control untreated cells was observed after 3 and 7 days of culture with F16, respectively; conditions: human breast, F16 3 μM, cells counted after 3 and 7 days
# Source text: as §1, §2, §3
# [5] = test system: MDA-MB-468; assay: cell count proliferation assay; type: cell-based; parameters: key: +: A positive scoring in these Tables represent cells in which a 2-5 and a 10-40 fold reduction in the total number of cells relative to the control untreated cells was observed after 3 and 7 days of culture with F16, respectively; conditions: MDA-MB-468, human breast; F16 3 μM, cells counted after 3 and 7 days
# Source text: as §1, §2, §3
# [6] = test system: MDA-MB-453; assay: cell count proliferation assay; type: cell-based; parameters: key: +: A positive scoring in these Tables represent cells in which a 2-5 and a 10-40 fold reduction in the total number of cells relative to the control untreated cells was observed after 3 and 7 days of culture with F16, respectively; conditions: MDA-MB-453, human breast; F16 3 μM, cells counted after 3 and 7 days
# Source text: as §1, §2, §3
# [7] = test system: MCF-7; assay: cell count proliferation assay; type: cell-based; parameters: key: +: A positive scoring in these Tables represent cells in which a 2-5 and a 10-40 fold reduction in the total number of cells relative to the control untreated cells was observed after 3 and 7 days of culture with F16, respectively; conditions: MCF-7, human breast; F16 3 μM, cells counted after 3 and 7 days
# Source text: as §1, §2, §3
# [8] = test system: kidney, heart and liver samples; assay: pathology examination of kidney, liver and heart; type: in vivo, mouse; conditions: four F16 treated and four placebo mice
# Source text: All the tumors from the twenty mice as well as kidney, liver and heart samples from four placebo and four F16 treated mice were sent for pathology examination. […] Necrosis probably results from the lack of sufficient blood supply to these fast growing tumors.
# [9] = test system: SMF; assay: cell count proliferation assay; type: cell-based, mouse; parameters: key: +: A positive scoring in these Tables represent cells in which a 2-5 and a 10-40 fold reduction in the total number of cells relative to the control untreated cells was observed after 3 and 7 days of culture with F16, respectively; conditions: Neu, breast, F16 3 μM, cells counted after 3 and 7 days
# Source text: as §1, §2, §3
# [10] = test system: NAF; assay: cell count proliferation assay; type: cell-based, mouse; parameters: key: +: A positive scoring in these Tables represent cells in which a 2-5 and a 10-40 fold reduction in the total number of cells relative to the control untreated cells was observed after 3 and 7 days of culture with F16, respectively; conditions: Neu, breast, F16 3 μM, cells counted after 3 and 7 days
# Source text: as §1, §2, §3
# [11] = test system: Neu4145; assay: cell count proliferation assay; type: cell-based, mouse; parameters: key: +: A positive scoring in these Tables represent cells in which a 2-5 and a 10-40 fold reduction in the total number of cells relative to the control untreated cells was observed after 3 and 7 days of culture with F16, respectively; conditions: Neu4145, Neu, breast; F16 3 μM, cells counted after 3 and 7 days
# Source text: as §1, §2, §3
# [12] = test system: AC236; assay: cell count proliferation assay; type: cell-based, mouse; parameters: key: +: A positive scoring in these Tables represent cells in which a 2-5 and a 10-40 fold reduction in the total number of cells relative to the control untreated cells was observed after 3 and 7 days of culture with F16, respectively; conditions: AC236, Ras, breast; F16 3 μM, cells counted after 3 and 7 days
# Source text: as §1, §2, §3
# [13] = test system: n-Neu; assay: cell count proliferation assay; type: cell-based, mouse; parameters: key: +: A positive scoring in these Tables represent cells in which a 2-5 and a 10-40 fold reduction in the total number of cells relative to the control untreated cells was observed after 3 and 7 days of culture with F16, respectively; conditions: breast, F16 3 μM, cells counted after 3 and 7 days
# Source text: as §1, §2, §3
# [14] = test system: NF324-1B; assay: cell count proliferation assay; type: cell-based, mouse; parameters: key: +: A positive scoring in these Tables represent cells in which a 2-5 and a 10-40 fold reduction in the total number of cells relative to the control untreated cells was observed after 3 and 7 days of culture with F16, respectively; conditions: Neu, breast, F16 3 μM, cells counted after 3 and 7 days
# Source text: as §1, §2, §3
# [15] = test system: NF980; assay: cell count proliferation assay; type: cell-based, mouse; parameters: key: +: A positive scoring in these Tables represent cells in which a 2-5 and a 10-40 fold reduction in the total number of cells relative to the control untreated cells was observed after 3 and 7 days of culture with F16, respectively; conditions: NF980, Neu, breast; F16 3 μM, cells counted after 3 and 7 days
# Source text: as §1, §2, §3
smiles,measurement,setting,value
C[n+]1ccc(/C=C/c2c[nH]c3ccccc23)cc1.[I-] [F16],F16 response,[1],+
same,F16 response,[2],+
same,F16 response,[3],+
same,F16 response,[4],+
same,F16 response,[5],+
same,F16 response,[6],+
same,F16 response,[7],+
same,"pathology of kidney, heart and liver samples versus placebo",[8],no major differences
same,F16 response,[9],+
same,F16 response,[10],+
same,F16 response,[11],+
same,F16 response,[12],+
same,F16 response,[13],+
same,F16 response,[14],+
same,F16 response,[15],+
